The record followed here is article PMC9519552, “Activation of the human insulin receptor by non-insulin-related peptides” (Nature Communications, 2022).

Where two headings read alike, the source gives them in different places. Positions of bridges follow the written chain, without caps; N, C: chain ends. Residues, ends and D or L forms follow the SMILES beside them.

For one test, the target named is T1, human IR-A (holoIR-A) (Homo sapiens, UniProt P06213).
T1 construct: expressed in transfected cells; host or cells: HEK293 (ATCC #CRL-1573), stably transfected; membrane preparation
T1 sequence (P06213 28-1370 isoform P06213-2 limits assumed): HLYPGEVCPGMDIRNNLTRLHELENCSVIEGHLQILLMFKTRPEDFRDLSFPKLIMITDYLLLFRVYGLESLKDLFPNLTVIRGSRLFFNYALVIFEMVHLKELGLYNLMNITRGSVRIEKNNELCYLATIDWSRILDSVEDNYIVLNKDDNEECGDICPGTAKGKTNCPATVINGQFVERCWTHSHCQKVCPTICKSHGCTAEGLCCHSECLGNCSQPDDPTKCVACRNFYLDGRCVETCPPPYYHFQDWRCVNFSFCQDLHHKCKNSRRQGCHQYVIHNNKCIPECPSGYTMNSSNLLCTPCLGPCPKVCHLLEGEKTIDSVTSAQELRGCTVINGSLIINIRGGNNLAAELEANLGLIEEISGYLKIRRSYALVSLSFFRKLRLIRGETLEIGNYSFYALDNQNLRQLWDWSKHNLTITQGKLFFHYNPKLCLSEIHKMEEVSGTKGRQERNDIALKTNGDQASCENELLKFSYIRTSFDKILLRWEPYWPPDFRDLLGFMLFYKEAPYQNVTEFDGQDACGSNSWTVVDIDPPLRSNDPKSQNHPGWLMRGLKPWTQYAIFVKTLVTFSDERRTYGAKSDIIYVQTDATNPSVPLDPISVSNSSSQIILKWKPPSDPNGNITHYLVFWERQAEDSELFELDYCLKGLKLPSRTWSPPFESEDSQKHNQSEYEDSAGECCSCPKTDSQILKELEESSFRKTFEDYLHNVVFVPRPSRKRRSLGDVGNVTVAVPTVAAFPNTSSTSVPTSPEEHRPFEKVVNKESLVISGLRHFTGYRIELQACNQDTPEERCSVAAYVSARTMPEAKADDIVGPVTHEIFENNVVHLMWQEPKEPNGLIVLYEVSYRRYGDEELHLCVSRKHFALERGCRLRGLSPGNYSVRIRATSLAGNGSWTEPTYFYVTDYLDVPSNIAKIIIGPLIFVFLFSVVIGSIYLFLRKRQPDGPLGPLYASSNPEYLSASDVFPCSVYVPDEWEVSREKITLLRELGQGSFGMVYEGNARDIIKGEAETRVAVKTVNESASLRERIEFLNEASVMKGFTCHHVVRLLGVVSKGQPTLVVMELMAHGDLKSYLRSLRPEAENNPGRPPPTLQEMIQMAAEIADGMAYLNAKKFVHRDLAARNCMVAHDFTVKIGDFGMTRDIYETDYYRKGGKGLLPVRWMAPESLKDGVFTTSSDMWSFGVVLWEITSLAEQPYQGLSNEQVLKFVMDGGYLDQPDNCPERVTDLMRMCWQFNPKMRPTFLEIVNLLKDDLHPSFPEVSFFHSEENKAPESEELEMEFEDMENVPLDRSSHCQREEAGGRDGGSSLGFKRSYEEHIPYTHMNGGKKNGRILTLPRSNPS
T1 sequence (P06213 763-1382 partner limits assumed): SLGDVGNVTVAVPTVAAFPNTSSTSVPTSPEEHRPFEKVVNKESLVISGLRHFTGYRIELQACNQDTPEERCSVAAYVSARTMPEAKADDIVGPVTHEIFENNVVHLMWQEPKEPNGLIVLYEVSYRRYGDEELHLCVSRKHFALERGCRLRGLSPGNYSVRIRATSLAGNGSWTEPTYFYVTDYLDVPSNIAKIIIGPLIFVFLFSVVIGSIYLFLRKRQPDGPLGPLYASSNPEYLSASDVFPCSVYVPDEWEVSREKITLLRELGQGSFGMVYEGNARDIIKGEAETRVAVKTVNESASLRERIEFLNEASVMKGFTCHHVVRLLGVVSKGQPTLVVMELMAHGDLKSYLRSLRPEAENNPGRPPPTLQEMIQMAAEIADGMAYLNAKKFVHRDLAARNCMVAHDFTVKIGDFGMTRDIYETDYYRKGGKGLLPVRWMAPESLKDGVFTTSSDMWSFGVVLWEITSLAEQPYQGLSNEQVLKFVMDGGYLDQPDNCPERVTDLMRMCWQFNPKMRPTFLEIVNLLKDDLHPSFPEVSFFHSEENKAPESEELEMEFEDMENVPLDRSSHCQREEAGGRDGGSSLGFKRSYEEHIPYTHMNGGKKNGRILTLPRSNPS
Put plainly: holoIR-A competitive radioligand binding assay (scintillation proximity assay). Conditions: for Ki: IM172N22(-) mutant peptide set; for reduction in ki for hIR-A on substitution: relative to control peptide IM172N22 devoid of N-terminal phenylacetylation. How it is done: Cellular membranes were prepared from human embryonic kidney (HEK293; ATCC #CRL-1573) cells stably transfected with cDNA corresponding to human IR-A (holoIR-A) plus a C-terminal C9 tag ([…]) inserted within a pcDNA3.1 plasmid (Invitrogen), with positive clones selected with 800 μg mL^−1 neomycin and confirmed by Western Blot. Frozen cell pellets were thawed in ice-cold homogenization/resuspension buffer (50 mM Tris-HCl, pH 7.5) containing one cOmplete® protease inhibitor tablet with EDTA (Roche Diagnostics) per 50 mL buffer. Cells were homogenized with an overhead motor-driven Teflon-glass homogenizer using 15–20 strokes, followed by centrifugation at 1100 × g for 10 min at 4 °C. The supernatant was saved on ice, pellets were homogenized as before, and centrifuged at 1100 × g for 10 min at 4 °C. Both supernatants were combined and subsequently centrifuged at 35,000 × g for 60 min at 4 °C. The pellet was resuspended in buffer (4 to 5 mL g^−1 of starting cell paste) containing protease inhibitors and quick frozen in liquid nitrogen prior to storage at −80 °C. Protein concentration was determined using a BCA kit (Thermo Scientific) with bovine serum albumin (BSA) as standard.
The assays were performed with a scintillation proximity assay (SPA) method using polyvinyltoluene (PVT) wheat germ agglutinin-coupled SPA beads (Perkin Elmer). Assay buffer containing 50 mM Tris-HCl (pH 7.5), 150 mM NaCl, 0.1% w/v fatty-acid free BSA was used for all compound testing and reagent preparation. Ten-point concentration response curves with three-fold serial dilutions of test samples or controls were prepared in the assay buffer. […] Plates were sealed and shaken for 1 min on a plate shaker. Following a 10-h incubation and bead settling period at room temperature, radioactivity was determined using a MicroBeta Trilux scintillation counter (Perkin Elmer) and expressed as counts per minute (CPM). […] Samples were tested in three independent assay runs on three different days.
All test sample concentration responses were normalized to the control response and calculated as a percent of the maximal response after correcting for nonspecific binding as shown below: %Specific Inhibition=100%−[(CPM−MIN)/(MAX−MIN)×100%]
Percent specific binding (y-axis) was plotted vs log concentration of compound (x-axis) using Prism Version 9.3.1 (GraphPad Software). Individual measurements are provided as Source Data.
A general note: Scintillation proximity formats need no separation of bound from free tracer.

Test [1] has as its target T2, human holoIR-A over-expressed in HEK293 cells (Homo sapiens, UniProt P06213).
T2 construct: expressed in transfected cells; host or cells: HEK293, stably transfected
Put plainly: Inhibition of hIR phosphorylation by peptides, co-incubated with BHI at its EC50 (ELISA). The format is cell-based. Conditions: for hIRA Phosph IC50 Run 1 / hIRA Phosph IC50 Run 2 / hIRA Phosph IC50 Run 3: inhibition of insulin-stimulated phosphorylation; for hIRA Phosph IC50 Run 1: BHI at its EC50, run 1; for hIRA Phosph IC50 Run 2: BHI at its EC50, run 2; for hIRA Phosph IC50 Run 3: BHI at its EC50, run 3; for IC50: read-out: hIRA Phosph IC50 Mean. How it is done: Phosphorylation was quantified using an ELISA technique. Ninety-six well, flat-bottom microplates (Greiner Bio-One) were pre-coated with 2 µg mL^−1 anti-C9 monoclonal antibody (Rho 1D4; University of British Columbia)[27] in 20 mM sodium carbonate, pH 9.6, at 4 °C for overnight prior to the assay. On the assay day, plates were washed 3× with 0.1% Tween in 50 mM Tris Buffer Saline, pH 7.5 (TBST), and then blocked for greater than 1 h at room temperature (RT) with 1% BSA (Sigma) in TBST.
Stably transfected HEK293 cells over-expressing human holoIR-A containing a C-terminal C9 epitope tag ([…]), were plated at 6 × 10^4 cells per well serum-starved using 0.1% BSA in DMEM (Gibco) for overnight at standard tissue culture condition. […] After a 15-min incubation in lysis buffer at 4 °C, the lysate was transferred to anti-C9 antibody coated capture plate (Rho 1D4; University of British Columbia)[27]. […] After a 1 h incubation at room temperature, the secondary antibody was removed by washing 3× with TBST. Signal detection occurred with the addition of TMB, an HRP substrate (Pierce). After 5–10 min, the reaction was stopped by adding an equal volume of 2 M H2SO4, and the absorbance readings at 450 nm (A450) were recorded using a Envision plate reader (PerkinElmer). Samples were tested in three independent assay runs on three different days.
Percent specific response (y-axis) was plotted versus the log concentration of compound (x-axis) using Prism Version 9.3.1 (GraphPad Software). Individual measurements are provided as Source Data.

Setting [2] is: mean of 3 runs, read-out: hIRA Binding Ki Mean.
The mark [3] stands for this setting: run 1, read-out: hIRA Binding Ki Run 1.
The mark [4] stands for this setting: run 2, read-out: hIRA Binding Ki Run 2.
[5] abbreviates: run 3, read-out: hIRA Binding Ki Run 3.

T2 sequence (P06213 28-1370 isoform P06213-2 limits assumed): as the sequence (P06213 28-1370 isoform P06213-2 limits assumed) above
T2 sequence (P06213 763-1382 partner limits assumed): as the sequence (P06213 763-1382 partner limits assumed) above

For `CC[C@H](C)[C@H](NC(=O)[C@H](CCC(N)=O)NC(=O)[C@H](C)NC(=O)[C@H](Cc1c[nH]c2ccccc12)NC(=O)[C@H](CCC(=O)O)NC(=O)[C@H](C)NC(=O)[C@H](CCC(=O)O)NC(=O)[C@H](CC(C)C)NC(=O)[C@H](CO)NC(C)=O)C(=O)N[C@@H](CCC(=O)O)C(=O)N[C@H]1CSSC[C@@H](C(=O)N2CCC[C@H]2C(=O)N2CCC[C@H]2C(=O)N[C@@H](CO)C(=O)N[C@@H](CCC(=O)O)C(=O)N[C@@H](CO)C(N)=O)NC(=O)[C@H](CCCNC(=N)N)NC(=O)CNC(=O)[C@H](Cc2ccc(O)cc2)NC(=O)[C@H](C(C)C)NC(=O)[C@H](CCC(=O)O)NC1=O` [Peptide E4A] (Ac-SLEAEWAQIECEVYGRCPPSES-NH2; disulfide 11-17), the Ki at human IR-A (holoIR-A) (setting [2]) was 25.5 nM. The Ki on human IR-A (holoIR-A) (setting [3]) came to 29.0 nM. Moreover, the Ki at human IR-A (holoIR-A) (setting [4]) worked out at 20.0 nM. At human IR-A (holoIR-A) (setting [5]), the Ki is 27.5 nM. In addition, the “reduction in ki for hIR-A on substitution” value at human IR-A (holoIR-A) was “lower than 5 fold”. In addition, in test [1], the “hIRA Phosph IC50 Run 1” value is given as 241 nM, the “hIRA Phosph IC50 Run 2” value is reported as 205 nM, the “hIRA Phosph IC50 Run 3” value came out at 206 nM and the IC50 turned out to be 217 nM.
Consider `CC[C@H](C)[C@H](NC(=O)[C@H](CCC(N)=O)NC(=O)[C@H](C)NC(=O)[C@H](Cc1c[nH]c2ccccc12)NC(=O)[C@H](CCC(=O)O)NC(=O)[C@H](CCC(=O)O)NC(=O)[C@H](CCC(=O)O)NC(=O)[C@H](CC(C)C)NC(=O)[C@H](CO)NC(C)=O)C(=O)N[C@@H](CCCNC(=N)N)C(=O)N[C@H]1CSSC[C@@H](C(=O)N2CCC[C@H]2C(=O)N2CCC[C@H]2C(=O)N[C@@H](CO)C(=O)N[C@@H](CCC(=O)O)C(=O)N[C@@H](CO)C(N)=O)NC(=O)[C@H](CCCNC(=N)N)NC(=O)CNC(=O)[C@H](Cc2ccc(O)cc2)NC(=O)[C@H](C(C)C)NC(=O)[C@H](CCC(=O)O)NC1=O` [Peptide E10R] (Ac-SLEEEWAQIRCEVYGRCPPSES-NH2; disulfide 11-17), for which the inhibition constant (Ki) at human IR-A (holoIR-A) (setting [2]) was 3.7 nM. The Ki on human IR-A (holoIR-A) (setting [3]) is 3.77 nM. Besides, the Ki on human IR-A (holoIR-A) (setting [4]) is given as 3.11 nM. The Ki on human IR-A (holoIR-A) (setting [5]) came out at 4.23 nM. In test [1], the “hIRA Phosph IC50 Run 1” value is 27 nM, the “hIRA Phosph IC50 Run 2” value came to 27 nM, the “hIRA Phosph IC50 Run 3” value is given as 24 nM and the IC50 is 26.2 nM.
For the compound `CC[C@H](C)[C@H](NC(=O)[C@H](CCC(N)=O)NC(=O)[C@H](C)NC(=O)[C@H](Cc1c[nH]c2ccccc12)NC(=O)[C@H](CCC(=O)O)NC(=O)[C@H](CCC(=O)O)NC(=O)[C@H](CCC(=O)O)NC(=O)[C@H](CC(C)C)NC(=O)[C@H](CO)NC(C)=O)C(=O)N[C@@H](CCC(=O)O)C(=O)N[C@H]1CSSC[C@@H](C(=O)N2CCC[C@H]2C(=O)N2CCC[C@H]2C(=O)N[C@@H](CO)C(=O)N[C@@H](C)C(=O)N[C@@H](CO)C(N)=O)NC(=O)[C@H](CCCNC(=N)N)NC(=O)CNC(=O)[C@H](Cc2ccc(O)cc2)NC(=O)[C@H](C(C)C)NC(=O)[C@H](CCC(=O)O)NC1=O` [Peptide E21A] (Ac-SLEEEWAQIECEVYGRCPPSAS-NH2; disulfide 11-17), at human IR-A (holoIR-A) (setting [2]), the Ki was determined as 17.5 nM. Moreover, the Ki on human IR-A (holoIR-A) (setting [3]) stood at 19.79 nM. The Ki on human IR-A (holoIR-A) (setting [4]) was found to be 18.2 nM. Further, the Ki on human IR-A (holoIR-A) (setting [5]) worked out at 14.7 nM. Besides, on human IR-A (holoIR-A), the “reduction in ki for hIR-A on substitution” value is “lower than 5 fold”. In addition, in test [1], the “hIRA Phosph IC50 Run 1” value is 147 nM, the “hIRA Phosph IC50 Run 2” value amounted to 122 nM, the “hIRA Phosph IC50 Run 3” value is given as 132 nM and the IC50 is 134 nM.

One may read the Ki as a measure of affinity in units of concentration, obtained from inhibition or displacement. As a reminder, the IC50 is the point on the concentration scale where inhibition reaches its midpoint.
